Reference: patent publication US8461328B2, “Tricyclic heterocyclic compounds, compositions and methods of use thereof” (Genentech, Inc., priority 2010, dated 2013)

Assays:
Assay type in all cases: biochemical
JAK1 = target: T1, JAK1 (Homo sapiens, UniProt P23458); assay: JAK1 inhibition (Table 4); details: read-out: JAK1 Ki
T1 construct: made in house; host or cells: SF9 insect cells (baculovirus)

JAK2 = target: T2, JAK2 (Homo sapiens, UniProt O60674); assay: JAK2 inhibition (Table 4); details: read-out: JAK2 Ki
T2 construct: made in house; host or cells: SF9 insect cells (baculovirus)

TYK2 = target: T3, TYK2 (Homo sapiens, UniProt P29597); assay: TYK2 inhibition (Table 4)
T3 construct: made in house; host or cells: SF9 insect cells (baculovirus)
T3 sequence (P29597 873-1187): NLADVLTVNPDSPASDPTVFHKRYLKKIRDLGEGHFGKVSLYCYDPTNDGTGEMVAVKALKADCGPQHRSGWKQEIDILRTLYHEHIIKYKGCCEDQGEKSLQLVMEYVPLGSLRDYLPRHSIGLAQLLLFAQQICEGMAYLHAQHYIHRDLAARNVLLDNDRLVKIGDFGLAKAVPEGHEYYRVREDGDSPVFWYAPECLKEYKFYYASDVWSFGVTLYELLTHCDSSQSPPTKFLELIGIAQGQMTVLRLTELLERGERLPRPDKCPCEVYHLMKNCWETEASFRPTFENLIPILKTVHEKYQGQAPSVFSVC

JAK3 = target: T4, JAK3 (Homo sapiens, UniProt P52333); assay: JAK3 inhibition (Table 4); details: read-out: JAK3 Ki
T4 construct: made in house; host or cells: SF9 insect cells (baculovirus)
T4 sequence (P52333 783-1124): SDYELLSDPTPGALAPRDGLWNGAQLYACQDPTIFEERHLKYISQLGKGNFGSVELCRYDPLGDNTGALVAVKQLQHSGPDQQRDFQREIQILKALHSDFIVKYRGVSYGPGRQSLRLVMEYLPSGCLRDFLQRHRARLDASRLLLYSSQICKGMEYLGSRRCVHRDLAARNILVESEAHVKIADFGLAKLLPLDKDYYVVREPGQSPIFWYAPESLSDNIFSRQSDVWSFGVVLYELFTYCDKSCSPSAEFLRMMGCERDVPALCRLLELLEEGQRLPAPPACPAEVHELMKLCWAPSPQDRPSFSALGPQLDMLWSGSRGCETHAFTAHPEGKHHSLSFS

T2 sequence (O60674 812-1132): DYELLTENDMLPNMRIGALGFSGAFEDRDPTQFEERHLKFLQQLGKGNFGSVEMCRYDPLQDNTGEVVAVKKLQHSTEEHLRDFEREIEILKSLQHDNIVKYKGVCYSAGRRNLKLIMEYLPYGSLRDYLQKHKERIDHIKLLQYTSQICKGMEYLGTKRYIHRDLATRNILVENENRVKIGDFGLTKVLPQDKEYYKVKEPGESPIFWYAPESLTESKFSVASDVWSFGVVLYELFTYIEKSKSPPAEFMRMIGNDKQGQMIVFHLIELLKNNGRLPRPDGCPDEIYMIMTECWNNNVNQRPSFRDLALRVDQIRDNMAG
T1 sequence (P23458 852-1154): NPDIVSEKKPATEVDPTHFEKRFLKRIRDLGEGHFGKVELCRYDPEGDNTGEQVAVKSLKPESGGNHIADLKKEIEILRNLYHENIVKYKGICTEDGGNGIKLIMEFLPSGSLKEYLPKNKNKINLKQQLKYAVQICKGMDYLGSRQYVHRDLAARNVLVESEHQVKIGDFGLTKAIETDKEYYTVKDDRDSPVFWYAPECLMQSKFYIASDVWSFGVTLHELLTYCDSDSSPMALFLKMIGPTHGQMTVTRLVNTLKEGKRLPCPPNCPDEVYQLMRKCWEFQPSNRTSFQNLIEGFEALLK

SMILES | Ki (JAK1) [µM] | Ki (JAK2) [µM] | Ki (TYK2) [µM] | Ki (JAK3) [µM]
OC1CCCC(n2cnc3cnc4[nH]ccc4c32)C1 (single isomer, unassigned) [Example 560, 3-(6H-1,3,5,6-Tetraaza-as-indacen-1-yl)-cyclohexanol] | 0.00814 | 0.0132 | 0.0473 | 0.0375
CC1CC(n2cnc3cnc4[nH]ccc4c32)CCN1 (racemic) [Example 229, 1-(2-Methyl-piperidin-4-yl)-1,6-dihydro-1,3,5,6-tetraaza-as-indacene] | 0.0487 | 0.142 | 0.33 | 0.417
CC(C)c1nc2cnc3[nH]ccc3c2n1C1CCNCC1 [Example 168, 2-Isopropyl-1-piperidin-4-yl-1,6-dihydro-1,2,3,5,6-tetraaza-as-indacene] | 0.0253 | 0.312 | 1.39 | 0.33
C[C@@H](O)c1nc2cnc3[nH]ccc3c2n1[C@@H]1CCCOC1 [Example 456, (R)-1-[(R)-1-(Tetrahydro-pyran-3-yl)-1,6-dihydro-1,2,3,5,6-tetraaza-as-indacen-2-yl]-ethanol] | 0.0701 | 0.354 | 0.176 | 0.346
COC(=O)N[C@H]1CC[C@H](n2c(CO)nc3cnc4[nH]ccc4c32)CC1 [Example 600, Trans[4-(2-hydroxymethyl-6H-1,2,3,5,6-tetraaza-as-indacen-1-yl)-cyclohexyl]-carbamic acid methyl ester] | 0.00273 | 0.0232 | 0.0208 | 0.172
c1cc2c(ncc3ncn(CC4CCNCC4)c32)[nH]1 [Example 255, 1-Piperidin-4-ylmethyl-1,6-dihydro-1,3,5,6-tetraaza-as-indacene] | 0.278 | 0.49 | 1.12 | 0.479
CNc1nc2cnc3[nH]ccc3c2n1C1CCN(Cc2cccc(C#N)c2)CC1 [Example 772, 3-[4-(2-Methylamino-6H-1,3,56-tetraaza-as-indacen-1-yl)-piperidine-1-yl-methyl]-benzonitrile] | 0.00136 | 0.0057 | 0.32 | 0.0435
CC(C)(C)OC(=O)N[C@@H]1CC[C@@H](n2nnc3cnc4[nH]ccc4c32)C1 [Example 727, [(1R,3R)-3-(6H-1,2,3,5,6-Pentaaza-as-indacen-1-yl)-cyclopentyl]-carbamic acid tert-butyl ester] | 0.00176 | 0.00773 | 0.143 | 0.0744
CC(O)c1nc2cnc3[nH]ccc3c2n1C1CCCN(C(=O)C2CCOC2)C1 (centres unmarked) [Example 786, {3-[2-(1-Hydroxy-ethyl)-6H-1,3,5,6-tetraaza-as-indacen-1-yl]-piperidin-1-yl}-(tetrahydro-furan-3-yl)-methanone] | 0.0525 | 0.596 | 0.599 | 1.12
N#CCCN1CC[C@@H](n2cnc3cnc4[nH]ccc4c32)C1 [Example 187, 3-[(R)-3-(6H-1,2,3,5,6-Tetraaza-as-indacen-1-yl)-pyrrolidin-1-yl]-propionitrile] | 0.0101 | 0.0223 | 0.0588 | 0.0576
O[C@@H]1CC[C@@H](n2cnc3cnc4[nH]ccc4c32)C1 [Example 711, (1R,3R)-3-(6H-1,2,3,5,6-Tetraaza-as-indacen-1-yl)-cyclopentanol] | 0.0141 | 0.0369 | 0.0703 | 0.0158
FC(F)(F)CCN1CCC(n2cnc3cnc4[nH]ccc4c32)CC1 [Example 339, 1-[1-(3,3,3-Trifluoro-propyl)-piperidin-4-yl]-1,6-dihydro-1,3,5,6-tetraaza-as-indacene] | 0.00389 | 0.00783 | 0.0225 | 0.0405
COC1CN(CCC#N)CCC1n1c(C)nc2cnc3[nH]ccc3c21 (racemic) [Example 538, 3-[3-Methoxy-4-(2-methyl-6H-1,3,5,6-tetraaza-as-indacen-1-yl)-piperidin-1-yl]-propionitrile] | 0.00086 | 0.00089 | 0.00866 | 0.00401
Cc1nc2cnc3[nH]ccc3c2n1C1CCC(NCC(F)(F)F)C1 (racemic) [Example 626, Racemic trans [3-(2-Methyl-6H-1,2,3,5,6-tetraaza-as-indacen-1-yl)-cyclopentyl]-(2,2,2-trifluoro-ethyl)-amine] | 0.00204 | 0.0064 | 0.00938 | 0.0337
CC(C)CS(=O)(=O)NCc1nc2cnc3[nH]ccc3c2n1C1CCN(CCC#N)CC1 [Example 506, 2-Methyl-propane-1-sulfonic acid {1-[1-(2-cyano-ethyl)-piperidin-4-yl]-1,6-dihydro-1,3,5,6-tetraaza-as-indacen-2-ylmethyl}-amide] | 0.00575 | 0.0537 | 0.179 | 0.074
CC1CN(CCC#N)CCC1n1cnc2cnc3[nH]ccc3c21 (racemic) [Example 323, 3-[3-Methyl-4-(6H-1,3,5,6-tetraaza-as-indacen-1-yl)-piperidin-1-yl]-propionitrile] | 0.00081 | 0.00177 | 0.00781 | 0.00677
O=C1CCC2(CCC(n3cnc4cnc5[nH]ccc5c43)CC2)N1 (centres unmarked) [Example 152, 8-(6H-1,2,3,5,6-Tetraaza-as-indacen-1-yl)-1-aza-spiro[4.5]decan-2-one] | 0.00314 | 0.00473 | 0.0138 | 0.0397
C[C@@H](O)c1nc2cnc3[nH]ccc3c2n1[C@H]1CC[C@@H](N2CCC(F)(F)CC2)CC1 [Example 612, Cis (R)-1-{1-[4-(4,4-difluoro-piperidin-1-yl)-cyclohexyl]-1,6-dihydro-1,2,3,5,6-tetraaza-as-indacen-2-yl}-ethanol] | 0.0529 | 0.455 | 0.224 | 0.509
CN(C)C(=O)CN1CCC[C@@H](n2cnc3cnc4[nH]ccc4c32)C1 [Example 60, N,N-Dimethyl-2-[(R)-3-(6H-1,3,5,6-tetraaza-as-indacen-1-yl)-piperidin-1-yl]acetamide] | 0.135 | 0.201 | 0.715 | 0.625
N#CCCN1CCC(n2c(CNC(=O)c3ccccn3)nc3cnc4[nH]ccc4c32)CC1 [Example 496, Pyridine-2-carboxylic acid {1-[1-(2-cyano-ethyl)-piperidin-4-yl]-1,6-dihydro-1,3,5,6-tetraaza-as-indacen-2-ylmethyl}-amide] | 0.00275 | 0.00805 | 0.0557 | 0.0131
CC1(O)CCC(n2cnc3cnc4[nH]ccc4c32)CC1 (stereo not drawn) [Example 993, Cis-1-Methyl-4-(6H-1,3,5,6-tetraaza-as-indacen-1-yl)-cyclohexanol] | 0.00167 | 0.004 | 0.00715 | 0.0241
Cc1nc2cnc3[nH]ccc3c2n1[C@H]1CC[C@H](NC(C)CC#N)CC1 (stereo partly drawn) [Example 590, Trans 3-[4-(2-methyl-6H-1,2,3,5,6-tetraaza-as-indacen-1-yl)-cyclohexylamino]-butyronitrile] | 0.00274 | 0.0135 | 0.0431 | 0.0171
COCCNc1nc2cnc3[nH]ccc3c2n1C1CCN(CCC#N)CC1 [Example 770, 3-{4-[2-(2-Methoxy-ethylamino)-6H-1,3,5,6-tetraaza-as-indacen-1-yl]-piperidin-1-yl}-propionitrile] | 0.0088 | 0.0327 | 0.207 | 0.0427
COCCN(C)C(=O)NC1CCC(n2cnc3cnc4[nH]ccc4c32)C1 (racemic) [Example 739, 1-(2-Methoxy-ethyl)-1-methyl-3-[3-(6H-1,3,5,6-tetraaza-as-indacen-1-yl)-cyclopentyl]-urea] | 0.0213 | 0.0538 | 0.536 | 0.299
N#CCCn1ncc2c1CC[C@H](n1cnc3cnc4[nH]ccc4c31)C2 [Example 959, 3-[(S)-5-(6H-1,3,5,6-Tetraaza-as-indacen-1-yl)-4,5,6,7-tetrahydro-indazol-1-yl]-propionitrile] | 0.00463 | 0.0063 | 0.038 | 0.0865
c1cc2c(ncc3ncn([C@@H]4CCCNC4)c32)[nH]1 [Example 2, (R)-1-Piperidin-3-yl-1,6-dihydro-1,2,3,5,6-tetraaza-as-indacene] | 0.177 | 0.518 | 1.51 | 0.913
CC1(n2nnc3cnc4[nH]ccc4c32)CCN(S(=O)(=O)c2cccnc2)CC1 [Example 584, 1-[4-Methyl-1-(pyridine-3-sulfonyl)-piperidin-4-yl]-1,6-dihydro-1,2,3,5,6-pentaaza-as-indacene] | 0.037 | 0.105 | 0.454 | 1.32
O=C(C1CC1F)N1CCC[C@@H](n2cnc3cnc4[nH]ccc4c32)C1 (mixture of isomers) [Example 235, (2-Fluoro-cyclopropyl)-[(R)-3-(6H-1,3,5,6-tetraaza-as-indacen-1-yl)-piperidin-1-yl]-methanone] | 0.00437 | 0.00656 | 0.0179 | 0.0426
C[C@@H](O)c1nc2cnc3[nH]ccc3c2n1C1CCOCC1 [Example 881, (R)-1-[1-(Tetrahydro-pyran-4-yl)-1,6-dihydro-1,3,5,6-tetraaza-as-indacen-2-yl]-ethanol] | 0.0264 | 0.28 | 0.0597 | 0.0906
